Values joined by “and” are separate entries in the source; they are usually repeats but may differ in a detail not shown here. Identical values can stand only once. Like-named read-outs stand apart in the source and are kept apart here. No end group written: not given here.
Experiments:
[1] = system: Langendorff perfused rabbit heart; assay: Retrograde-perfused Langendorff rabbit heart assay; conditions: bolus into the perfusion block
Protocol: The effect of h-SCP (SEQ ID NO:1) on heart rate (HR), left ventricular (LV) contraction, and vascular tone was assessed in a retrograde-perfused Langendorff rabbit heart assay.

[2] = molecular target: T1, CRHR1 (Homo sapiens, UniProt P34998); assay: Radioligand binding CRHR1 assay, [125I]-(Tyr0)-sauvagine; design: expressed in transfected cells; host or cells: cell membranes; conditions: Table 15; slope of competition curve
T1 sequence (P34998 24-415): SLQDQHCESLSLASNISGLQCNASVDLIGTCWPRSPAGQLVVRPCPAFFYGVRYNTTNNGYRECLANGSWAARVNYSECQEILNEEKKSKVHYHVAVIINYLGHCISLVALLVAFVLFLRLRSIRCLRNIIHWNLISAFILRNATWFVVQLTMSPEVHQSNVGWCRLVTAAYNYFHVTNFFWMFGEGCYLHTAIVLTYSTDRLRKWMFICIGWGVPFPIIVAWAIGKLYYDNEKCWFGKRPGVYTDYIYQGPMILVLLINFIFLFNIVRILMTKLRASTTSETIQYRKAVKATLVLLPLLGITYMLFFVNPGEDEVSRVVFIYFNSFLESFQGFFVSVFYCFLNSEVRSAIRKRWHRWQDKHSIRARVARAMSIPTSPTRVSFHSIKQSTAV
Protocol: The solution was then homogenized with a Polytron tissue grinder at a setting of 10 and 7×3 s (Brinkmann Instruments, Westbury, N.Y.). The homogenate was centrifuged at 4° Celsius at 800×g for 5 min with the pellet being discarded. […] All binding assays were conducted in 96-well Multiscreen GF/B filter plates (Millipore, Billericay, Mass., U.S.A.) that were pre-soaked in assay buffer with 0.3% PEI for 1 hour. […] The bound radioactivity was separated by filtration using a Multiscreen Resist manifold (Millipore Corp., Billerica, Mass., U.S.A). The filters were washed three times with ice-cold PBS at pH 7.5 and radioactivity retained on the filters was quantified by its liquid scintillation measured by a TopCount counter (Packard BioScience, Boston, Mass., U.S.A). All experiments were performed in triplicate.

[3] = system: isolated rat aortic rings; assay: Vascular smooth muscle relaxation, isolated rat aortic rings pre-contracted with phenylephrine
Description: The ability of h-SCP (SEQ ID NO:1) to relax vascular smooth muscle was examined in isolated, rat aortic rings pre-contracted with phenylephrine (PE) (see FIG. 6). […] The responses caused by h-SCP (SEQ ID NO:1) were inhibited by anti-sauvagine-30 (SEQ ID NO:118).

[4] = molecular target: T2, h-CRHR2b (Homo sapiens, UniProt Q13324); conditions: h-CRHR2b transfected HEK-293 cells, approximated from concentration response curves, Hsu et al. 2001; cited from earlier work
T2 sequence (Q13324 1-438 isoform Q13324-2): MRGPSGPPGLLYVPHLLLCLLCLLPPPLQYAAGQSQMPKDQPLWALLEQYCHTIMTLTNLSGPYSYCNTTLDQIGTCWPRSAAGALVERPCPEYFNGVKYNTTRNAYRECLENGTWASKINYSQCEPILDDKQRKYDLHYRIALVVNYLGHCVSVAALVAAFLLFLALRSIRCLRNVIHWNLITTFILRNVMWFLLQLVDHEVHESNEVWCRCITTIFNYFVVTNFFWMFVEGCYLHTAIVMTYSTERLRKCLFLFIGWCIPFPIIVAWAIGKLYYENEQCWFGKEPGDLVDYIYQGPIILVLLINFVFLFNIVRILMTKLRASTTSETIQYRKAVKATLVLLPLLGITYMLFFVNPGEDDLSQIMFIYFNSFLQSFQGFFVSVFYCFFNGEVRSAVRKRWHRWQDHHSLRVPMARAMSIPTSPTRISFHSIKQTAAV

[5] = molecular target: T1, CRHR1; assay: cAMP assay in h-CRHR1 transfected SK-N-MC cells; type: cell-based; design: expressed in transfected cells; conditions: for Experimental nH: Table 11, Hill slope
Protocol: Human CRHR1 (accession number X72304) or CRHR2 (accession number U34587) were cloned into pcDNA3.1/Zeo expression vector and stably transfected into SK-N-MC cells by electroporation. Cells were maintained in MEM w/Earl's Salt with 10% FBS, 50 I.U. penicillin, 50 μg/ml streptomycin, 2 mM L-glutamine, 1 mM sodium pyruvate and 0.1 mM nonessential amino acids, 600 μg/ml G418. Cells were grown at 37° C. in 5% CO2.
Cells were plated in 96-well tissue culture dishes (Biocoat from BD Biosciences) overnight at 50,000 cell/well. Cells were washed with PBS then resuspended in DMEM F-12 without phenol red, containing 10 μM isobutylmethylxanthine (IBMX). Cells were incubated with the peptides at concentrations ranging from 1 pM to 10 μM for 60 min at 37° Celsius. […] Forskolin (10 μM), a direct stimulant of adenylate cyclase, was used as positive control. The assays were stopped by the addition of 0.5 M HCl and mixing by orbital rotation for 2 h at 4° Celsius.
Transfected SK-N-MC cells were plated in 96-well Biocoat tissue culture dishes (BD Biosciences, San Jose, Calif., U.S.A) overnight at 50,000 cell/well. […]
Individual agonist concentration-response curve data were fitted to the Hill equation, see formula below, using GraphPad Prism (Graphpad Software, La Jolla, Calif., U.S.A.), to provide estimates of agonist concentration needed to generate one-half maximal response (A50), and the maximal asymptote (α) and Hill slope (nH) parameters. In this equation, [A] is the agonist concentration and E is the measured effect:
For display purposes the mean fitted parameter estimates were used to generate a single E/[A] curve shown superimposed on the mean experimental data. Potency estimates for agonists, pA50, are expressed as the negative logarithm of the midpoint of each curve and listed with their standard error of measurement (SEM).
Human and rat peptides (see Table 10) were used on the stimulation of h-CRHR1 or h-CRHR2 transfected SK-N-MC cells in the cAMP flash plate assay. […] Curves were calculated using non-linear regression sigmoidal concentration-response analysis calculation in GraphPad Prism.

Row | Compound | EC50 ([1]; read-out: concentration for 50% response, decrease in coronary perfusion pressure (CPP)) [nM] | EC50 ([1]; read-out: concentration for 50% response, increase in heart rate) [nM] | EC50 ([1]; read-out: concentration for 50% response, increase in left ventricular developed pressure (dP/dtmax)) [nM] | CRHR1 nH [2] | pA50 relaxation ([3]; rat aortic rings pre-contracted with phenylephrine) | fold less potent than h-UCN2 ([3]; relaxation of rat aortic rings) [fold] | Published pA50 [4] | Experimental nH [5] | Experimental αmax ([5]; Table 11, maximal asymptote) | Experimental nH ([5]; listed as h-SRP)
1 | TKFTLSLDVPTNIMNLLFNIAKAKNLRAQAAANAHLMAQI-NH2 [SEQ ID NO: 1, TKFTLSLDVPTNIMNLLFNIAKAKNLRAQAAANAHLMAQI-NH2, reference compound] | 46 | 52 | 9.9 | 1.16 ± 0.65 | 6.05±0.12 | 10 | ~9^4 |  |  | 
2 | CC[C@H](C)[C@H](NC(=O)[C@H](CO)NC(=O)[C@H](CC(C)C)NC(=O)[C@@H]1CCCN1C(=O)[C@@H]1CCCN1C(=O)[C@H](CC(=O)O)NC(=O)[C@@H](N)CC(=O)O)C(=O)N[C@@H](CC(=O)O)C(=O)N[C@@H](CC(C)C)C(=O)N[C@H](C(=O)N[C@@H](Cc1ccccc1)C(=O)N[C@@H](Cc1c[nH]cn1)C(=O)N[C@@H](CC(C)C)C(=O)N[C@@H](CC(C)C)C(=O)N[C@@H](CCCNC(=N)N)C(=O)N[C@H](C(=O)N[C@@H](CC(C)C)C(=O)N[C@@H](CC(C)C)C(=O)N[C@@H](CCC(=O)O)C(=O)N[C@@H](CC(C)C)C(=O)N[C@@H](C)C(=O)N[C@@H](CCCNC(=N)N)C(=O)N[C@H](C(=O)N[C@@H](CCC(N)=O)C(=O)N[C@@H](CO)C(=O)N[C@@H](CCC(N)=O)C(=O)N[C@@H](CCCNC(=N)N)C(=O)N[C@@H](CCC(=O)O)C(=O)N[C@@H](CCCNC(=N)N)C(=O)N[C@@H](C)C(=O)N[C@@H](CCC(=O)O)C(=O)N[C@@H](CCC(N)=O)C(=O)N[C@@H](CC(N)=O)C(=O)N[C@@H](CCCNC(=N)N)C(=O)N[C@H](C(=O)N[C@H](C(=O)N[C@@H](Cc1ccccc1)C(=O)N[C@@H](CC(=O)O)C(=O)N[C@@H](CO)C(=O)N[C@H](C(N)=O)C(C)C)[C@@H](C)CC)[C@@H](C)CC)[C@@H](C)O)[C@@H](C)O)[C@@H](C)O [SEQ ID NO: 114, DDPPLSIDLTFHLLRTLLELARTQSQRERAEQNRIIFDSV-NH2] |  |  |  | 0.91 ± 0.27 |  |  |  | 1.15 | 99.61 | 
3 | HPGSRIVLSLDVPIGLLQILLEQARARAAREQATTNARILARV-NH2 [SEQ ID NO: 117, HPGSRIVLSLDVPIGLLQILLEQARAPAAREQATTNARILARV-NH2, reference compound] |  |  |  |  |  |  | ~9^4 |  |  | 1.61 and 1.33 and 1.26

— patent US10040838B2, “CRHR2 peptide agonists and uses thereof” (JANSSEN PHARMACEUTICA NV, priority 2008, dated 2018)
